Measurements: patent publication US20120202884A1, “INHIBITORS OF CXCR1/2 AS ADJUVANTS IN THE TRANSPLANT OF PANCREATIC ISLETS” (DOMPE' S.P.A., priority 2009, published 2012)

Columns and labels:
[1] = test system: diabetic C57 mice; assay: Allogeneic islet transplantation in the liver of diabetic mice; conditions: for Odds ratio, Multivariate Cox Regression Analysis of loss of graft survival: Reparixin 95% CI 0.099-0.64, p=0.004, Rapamycin 95% CI 0.562-2.45, p=0.67; for Odds ratio, Multivariate Cox Regression Analysis of reaching primary function: allogeneic transplant, Reparixin 95% CI 0.79-2.99, p<0.202, Rapamycin 95% CI 0.62-2.15, p<0.62; for probability to reach the primary function (glycaemia<250 mg/dl) / median time to reach the primary function (glycaemia<250 mg/dl): allogeneic, 400 IE in liver; for probability to reach the primary function (glycaemia<250 mg/dl): Reparixin 5.28 mg/kg/h s.c. day -1 to 7, Rapamycin i.p. 0.3 then 0.15 mg/kg to day 14, vehicle 44%; for median time to reach the primary function (glycaemia<250 mg/dl): vehicle 2 days; for median survival time (graft): mice that achieved primary function, vehicle 8±0.5 days
Method: Islets from 12 week old Balb/c mice were transplanted in the liver of diabetic C57 mice (alloxan, glycaemia>450 mg/dl). […] In both cases 400 IE were transplanted.
The ability to reach primary function, defined as non-fasting blood glucose levels less than 250 mg/dl for 2 consecutive measurements after islet transplantation and the time to rejection defined as 2 consecutive non-fasting blood glucose readings greater than 300 mg/dL were first evaluated.

[2] = test system: diabetic C57 mice; assay: Syngeneic islet transplantation in the liver of diabetic mice; assay type: in vivo
Method: Two different marginal islet mass models, 150 IE (Islet Equivalents) and 250 IE, were used. […] Control animals received continuous s.c. vehicle.
The ability to reach a non-fasting blood glucose level less than 200 mg/dl for two consecutive measurements after islet transplantation was first evaluated.
An intravenous glucose tolerance test (IVGTT) and an oral glucose tolerance test (OGTT) were performed 1 and 3 months after transplantation to evaluate the functionality of the grafted islets. IVGTT was initiated after a 16-hour fast; the mice were given glucose (0.5 g/kg) by tail vein injection. Blood samples were obtained 0, 1, 5, 15, 20, 30 and 60 minutes after injection and were used to determine glucose concentrations. From the IVGTT, glucose tolerance was quantified from the glucose elimination constant (KG; expressed as percent elimination of glucose per minute) as the reduction in circulating glucose between 1 and 15 min (KG1-15) after intravenous administration, following the logarithmic transformation of the individual plasma glucose values. A similar estimation was performed for the total 1- to 60-min glucose disappearance rate (KG 1-60). This parameter indicates the rate of glucose disappearance during the whole test. OGTT was initiated after a 4-hour fast; the mice were given glucose (1 g/kg) by oral gavage. Blood samples were obtained 0, 10, 20, 30, 60, 90 and 120 minutes after glucose administration and used to determine glucose concentrations. The area under the curve (AUC) for glucose during OGTT was calculated using the trapezoidal method (baseline=0 min). […] The data are reported as scatter plots. […] Upper and lower panels respectively report the data 1 and 3 months after transplantation.
Acute liver damage was quantified by circulating levels of alanine aminotransferase (ALT) 24 h and 48 h after Transplantation.

[3] = test system: intrahepatic leukocyte (IHL) population; assay: Intrahepatic leukocyte population after allogeneic intrahepatic islet transplantation (flow cytometry); assay type: in vivo, mice
Method: The intrahepatic leukocyte population was analysed in the presence or in the absence of Reparixin treatment after allogeneic intrahepatic islet transplantation in mice. […] The mice were sacrificed at day 0, +1, +3, +5, +7, +10, +14 after islet transplantation and the livers were weighed at the time of autopsy. Single cell suspensions were prepared from two liver lobes of known weight and analysis of the intrahepatic leukocyte (IHL) population was performed flow cytometry. The cells were surface stained with fluorescein isothiocyanate (FITC)-, phycoerythrin (PE)- or allophycocyanin (APC)-labeled anti-CD4, anti-CD8, anti-CD3, anti CD19, anti-TCR, anti-NK1.1, anti CD11, anti-Gr-1, anti-CD11b, and anti-CD11c Abs (PharMingen, San Diego, Calif.) for the detection of Gr-^+/CD11b^+/CD11c^− cells (mostly PMNs), […] (mostly T helper cell), CD8^+/TCR^+ cells (mostly CTLs), […], NK1.1^+/CD3^+ cells (NKT cells) and Gr-1^−/CD11b^−/CD11c^− (mostly macrophages), CD115+/CD11b+/Cd11c− (mostly monocytes), CD11c+/CD11b+/Gr1− (mostly dendritic cells), CD19 (mostly B lymphocytes). Samples were acquired on a FACSCalibur flow cytometer and the data were analyzed using CELLQuest software (Becton Dickinson Immunocytometry Systems, San Jose, Calif.). In a second set of experiments, CXCR2 and CXCR1 expression on IHL Population was evaluated at the time point in which leucocyte infiltration gained the highest degree of infiltration.

[4] = test system: diabetic C57 mice; assay: Allogeneic islet transplantation in bone marrow of diabetic mice; assay type: in vivo; conditions: 400 EI Balb/c islets in bone marrow; Reparixin 8 mg/h/kg s.c. continuous infusion 7 days from day -1
Method: A control group of mice was treated with vehicle.

[5] = 1 and 3 months after transplantation, versus control mice

| Structure (SMILES) | Odds ratio, Multivariate Cox Regression Analysis of loss of graft survival [1] | Odds ratio, Multivariate Cox Regression Analysis of reaching primary function [1] | probability to reach the primary function (glycaemia<250 mg/dl) [1] [%] | median time to reach the primary function (glycaemia<250 mg/dl) [1] [days] | median survival time (graft) [1] [days] | glucose elimination constant between 1 and 15 min (KG1-15), IVGTT [2, 5] | glucose elimination constant between 1 and 60 min (KG1-60), IVGTT [2, 5] | AUC for glucose during OGTT ([2]; 1 and 3 months post transplant, versus control mice) | circulating levels of alanine aminotransferase (ALT), acute liver damage ([2]; 24 h and 48 h after transplantation, 150 or 250 IE) | probability to reach euglycaemia (<200 mg/dl) ([2]; syngeneic C57 islets, 150 or 250 IE in liver, Reparixin 8 mg/kg/h s.c. continuous infusion day -1 to 6 or 13, vehicle 35.1%) [%] | median time to reach euglycaemia (<200 mg/dl) ([2]; syngeneic C57 islets, 150 or 250 IE in liver, Reparixin 8 mg/kg/h s.c. continuous infusion, vehicle 50 days) [days] | Odds ratio, Multivariate Cox Regression Analysis of reaching euglycaemia ([2]; syngeneic transplant, 95% CI: 1.1-6.1, p<0.021) | circulating levels of white blood cells, red blood cells and platelets ([2]; syngeneic transplant, data not shown) | leucocytes recruitment and infiltration in the liver ([3]; allogeneic transplant 400 EI, Reparixin 8 mg/h/kg s.c. continuous infusion 7 days from day -1) | PMNs in the liver ([3]; allogeneic transplant, Reparixin 8 mg/h/kg s.c., FIG. 8) | NKT cells in the liver ([3]; allogeneic transplant, Reparixin 8 mg/h/kg s.c., FIG. 9) | outcome (primary function and time to rejection) [4] | time to rejection ([1]; mice that achieved primary function post-transplant, rejection = 2 consecutive non-fasting glucose readings >300 mg/dL) |
| --- | --- | --- | --- | --- | --- | --- | --- | --- | --- | --- | --- | --- | --- | --- | --- | --- | --- | --- |
| CO[C@H]1C[C@@H]2CC[C@@H](C)[C@@](O)(O2)C(=O)C(=O)N2CCCC[C@H]2C(=O)O[C@H]([C@H](C)C[C@@H]2CC[C@@H](O)[C@H](OC)C2)CC(=O)[C@H](C)/C=C(\C)[C@@H](O)[C@@H](OC)C(=O)[C@H](C)C[C@H](C)/C=C/C=C/C=C/1C [Rapamycin, reference compound] | 1.173 | 1.1 | 73 | 1 | 8 ± 0.6 | – | – | – | – | – | – | – | – | – | – | – | – | – |
| CC(C)Cc1ccc([C@@H](C)C(=O)NS(C)(=O)=O)cc1 [Reparixin, R(−)-2-[(4-isobutylphenyl)propionyl]-methanesulfonamide] | 0.252 | 2.5 | 72 | 1 | 12 ± 0.6 | significantly increased | significantly increased | remains lower than that of the control mice | not affected | 50 | 7 | 2.6 | no difference | reduces | significantly affected | significantly affected | improved | significantly increased |
